Experiments:
[1] = tested on: Immunoglobulin levels (IgG, IgA and IgM); experiment: Serum immunoglobulin levels by nephelometry, cross-sectional case control study of clozapine-treated vs clozapine-naive patients; assay type: in vivo, human
[2] = tested on: specific antibody levels against Haemophilus B (Hib), Tetanus and Pneumococcus; design: species or system human; conditions: in vivo
[3] = Infection questionnaire, antibiotic courses and hospital admissions, same case control study; assay type: in vivo, human
serum IgG, IgA and IgM = experiment: Serum immunoglobulins in clozapine patients referred to Immunology clinic; assay type: in vivo, human
[4] = tested on: IgG to Haemophilus influenza B, Pneumococcus and Tetanus; conditions: human, in vivo
[5] = tested on: circulating total IgG, IgA, IgM and pneumococcal-specific IgG; experiment: Second observational study (interim), circulating immunoglobulins; assay type: in vivo, human; conditions: interim analysis
[6] = tested on: circulating B cell subsets; experiment: Second observational study (interim), peripheral blood B cell subsets by FACS; assay type: in vivo, human; conditions: interim analysis
[7] = Wild type mouse study, body weight; assay type: in vivo, C57BL/6 mice; conditions: 5 mg/kg and 10 mg/kg IP once daily; maximal by 3 days, recovering fully to baseline by day 9
[8] = tested on: collagen-induced arthritis; experiment: Collagen-induced arthritis (CIA) model, onset, clinical score and paw-swelling; assay type: in vivo, DBA/1 mice
Description: Adult (age 13-15 weeks) DBA/1 male mice were purchased from Envigo (Horst, Netherlands). […] 1. […] All experiments were approved by the Clinical Medicine Animal Welfare and Ethical Review Body (AWERB) and by the UK Home Office. DBA/1 mice were immunised with bovine type II collagen in CFA and monitored daily for onset of arthritis. […] Controls received vehicle (saline) alone. Treatment of mice commenced in one experiment on day 1 after immunisation and in a second experiment on day 15 after immunisation. Clinical scores and paw-swelling were monitored for 10 days following onset of arthritis. A clinical scoring system was used as follows. Arthritis severity was scored by an experienced, non-blinded investigator as follows: 0=normal, 1=slight swelling and/or erythema, 2=pronounced swelling, 3=ankylosis. […] Data were analyzed by one-way ANOVA with Tukey's or Dunnett's multiple comparison test or two-way ANOVA with Tukey's multiple comparison test as appropriate. All calculations were made using GraphPad Prism software.

[9] = tested on: B220+ B cells, plasma cells, germinal centre B cells; experiment: CIA model, B cell subsets in spleen and lymph nodes by FACS; assay type: in vivo, DBA/1 mice
[10] = tested on: anti-type II collagen IgG1 and IgG2a; experiment: CIA model, anti-collagen immunoglobulin by ELISA; assay type: in vivo, DBA/1 mice
[11] = tested on: T follicular helper cells (CD4+ PD1+ CXCR5+); experiment: CIA model, T follicular helper cells by FACS; assay type: in vivo, DBA/1 mice
[12] = tested on: class switched memory B cells, plasmablasts and other B cell subsets
[13] = tested on: total peripheral blood B-cells from healthy donors differentiating to plasmablasts and plasma cells
[14] = tested on: treatment-resistant schizophrenia; conditions: schizophrenic patients; cited from earlier work
[15] = tested on: serum/plasma IgG, IgA, IgM; conditions: cited from earlier work
[16] = Michel et al., 2015; cited from earlier work
[17] = tested on: splenic B cell and T cell populations; experiment: Wild type mouse study, spleen immunophenotyping by flow cytometry
[18] = tested on: bone marrow B cell subsets; experiment: Wild type mouse study, bone marrow B cell immunophenotyping by flow cytometry
CD20 = target: T1, CD20 (Homo sapiens, UniProt P11836); conditions: Arnold et al., 2017; Khellaf et al., 2014; cited from earlier work
T1 construct: host or cells: B cells of patients in vivo
T1 sequence (P11836 1-297): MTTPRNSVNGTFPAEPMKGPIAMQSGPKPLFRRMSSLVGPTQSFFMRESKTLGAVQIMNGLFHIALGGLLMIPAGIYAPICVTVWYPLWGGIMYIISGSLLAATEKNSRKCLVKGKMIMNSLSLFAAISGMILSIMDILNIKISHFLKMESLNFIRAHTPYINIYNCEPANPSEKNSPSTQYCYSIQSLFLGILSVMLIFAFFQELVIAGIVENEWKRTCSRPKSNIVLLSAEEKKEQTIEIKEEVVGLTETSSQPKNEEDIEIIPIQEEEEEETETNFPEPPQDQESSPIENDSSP

[19] = clozapine-treated patients post-exclusion, n=94
[20] = number of admissions, clozapine-treated patients
[21] = FIG. 3B, referred clozapine patients
[22] = outpatients on clozapine for at least five years (Lozano et al., 2016)
[23] = six weeks treatment (Hinze-Selch et al., 1998)
[24] = 10 mg/kg clozapine IP, 21 days, FIG. 18

CN1CCN(C2=Nc3cc(Cl)ccc3Nc3ccccc32)CC1 [Clozapine, clozapine]
Concentrations of IgG, IgA and IgM vs clozapine-naive control group ([1]; human, in vivo): significantly reduced
Effect of duration of clozapine therapy on serum IgG ([1]; p 0.014, FIG. 2, not observed in clozapine-naive patients): associated with lower serum IgG levels
IgM-Pneumococcus, mean (SEM in the line below) [2]: 58.5 U/L
Admitted to hospital with infection ([3]; clozapine group vs 0.06 in controls): 0.12 per patient year
Antibiotic courses per year: 1-5 courses, percentage of patients [3, 19]: 33.0%
Antibiotic courses per year: >5 courses, percentage of patients [3, 19]: 5.3%
Antibiotic courses per year: nil courses, percentage of patients [3, 19]: 61.7%
Antibiotic courses per year: >5 courses, percentage of patients ([3]; clozapine-treated patients post-exclusion, n=94, listed as clozapine): 5.3%
Admission frequency in 12-month period, all cause [3, 20]: 21
Admission frequency in 12-month period, infection-related [3, 20]: 15
Serum IgA after clozapine was stopped (serum IgG, IgA and IgM; one patient, after 24 months): 0.29 g/L
Serum IgM after clozapine was stopped (serum IgG, IgA and IgM; one patient, after 24 months): 0.49 g/L
Mean IgA (serum IgG, IgA and IgM; referred clozapine patients): 0.34 g/L
Mean IgG (serum IgG, IgA and IgM; referred clozapine patients): 3.6 g/L
Mean IgM (serum IgG, IgA and IgM; referred clozapine patients): 0.21 g/L
Individuals failing to develop an IgG response above ≥50 mg/L [4]: 73%
Individuals failing to mount a Haemophilus-IgG response ≥1 mcg/ml [4]: 42%
Patients with IgG to Haemophilus influenza B (HiB) <1 mcg/ml at initial assessment [4]: 75%
Patients with Pneumococcus-IgG <50 mg/L at initial assessment [4]: 94%
Patients with Tetanus-IgG <0.1 IU/mL at initial assessment [4]: 38%
Vaccine response of individual referred patient [4]: Failure to responds to
Levels of circulating total IgG, IgA and IgM vs clozapine naive ([5]; FIG. 6A-C): Significantly reduced
IgG antibodies against pneumococcus vs clozapine naive ([5]; FIG. 7): trend to lower
Overall CD19+ B cell numbers vs clozapine naive ([6]; FIG. 8A-B): not significantly different
Naive (CD19+ CD27-) B cells as a proportion of total CD19+ B cells ([6]; FIG. 9A-C): Small increase
Overall memory B cell pool ([6]; FIG. 10A-C): without perturbation
IgMhi IgDlo memory B cell subpopulation ([6]; FIG. 12A-C): without perturbation
Circulating levels of transitional B cells ([6]; FIG. 13A-C): No significant difference
Circulating levels of marginal zone B cells ([6]; FIG. 14A-C): No significant difference
Class-switched memory B cells (CD27+ IgM- IgD- as % B) ([6]; P=0.06 vs control, FIG. 11A-C): Strong trends to a specific reduction
Levels of plasmablasts ([6]; P=0.07 vs control clozapine naive, FIG. 15A-C): Strong trends to reduction
Body weight [7]: transient fall in body weight
Swelling of the first affected paw ([8]; 10 mg/kg clozapine from day 1, FIG. 27): reduced swelling of the first affected paw
Arthritis onset ([8]; both doses of clozapine (5, 10 mg/kg) from day 1): extremely effective in delaying arthritis onset
Overall clinical score ([8]; both doses, administered on day 1, FIG. 27): reduced overall clinical score
Onset of arthritis post-immunisation ([8]; clozapine 5 or 10 mg/kg IP daily from day 1 or day 15, FIGS. 25 and 26): significantly effective in delaying the onset
Incidence of CIA ([8]; most apparent when dosed just after CII immunisation, FIG. 26): reduces the incidence
Total number of affected paws compared to vehicle control ([8]; significant with dosing at D1, FIG. 28): reduced the total number of affected paws
Proportion of plasma cells in spleen ([9]; 10 mg/kg clozapine given on day 1, FIG. 30): significant reduction
Proportion of B220+ B cells in spleen ([9]; 10 mg/kg from day 1): significantly reduced
Level of GL7 expression on follicular B cells in lymph node ([9]; all clozapine treatment groups vs vehicle, FIG. 32): significantly decreased
Percentage of B220+ B cells in lymph nodes ([9]; all doses and time points (5 or 10 mg/kg from day 1 or day 15), FIG. 29): significantly lower percentage
Lymph node follicular B cells (B220+IgD-Fas+GL7hi) ([9]; all doses/both time points, FIG. 31): Strikingly significant reductions
Reduction of anti-type II collagen IgG1 ([10]; 10 mg/kg from day 15, FIG. 33): reaching statistical significance
Serum anti-type II collagen IgG2a ([10]; 5 or 10 mg/kg from day 1 or day 15, single time point, FIG. 33): no significant impact
Levels of anti-type II collagen IgG1 ([10]; across all doses tested, FIG. 33): nominal reductions
Proportions of CD4+PD1+CXCR5+ T follicular helper cells in lymph node or spleen ([11]; 5 or 10 mg/kg from day 1 or day 15, FIG. 34): did not significantly affect
Expression of PD-1 in lymph node T follicular helper cells (MFI) ([11]; all doses and time points, FIG. 35): Reduced expression of PD-1
CXCR5 expression on T follicular helper cells (MFI) ([11]; dosed from day 1, lymph node and spleen, FIG. 36): significant reductions
Expression of CCR7 on germinal centre resident T follicular helper cells ([11]; lymph node and spleen, FIG. 37): reduction in expression of CCR7
CSMB vs healthy controls [12, 21]: significant reduction
Marginal zone B cell numbers vs healthy control [12, 21]: no significant difference
Total B cell numbers vs CVID and healthy controls [12, 21]: similar
Overall lymphopenia or B cell lymphopenia ([12]; human, in vivo): no severe overall lymphopenia or B cell lymphopenia
Direct toxicity to differentiating B-cells [13]: no direct toxicity effect
Previously treatment refractive patients in whom effective [14]: approximately 60%
IgA, IgG, absolute neutrophil count and white blood cell count vs control group [15, 22]: no differences were found
Mean plasma levels of IgM vs control group [15, 22]: overall decrease
IgA or IgM concentrations, pattern of autoantibodies [15, 23]: no significant effect
Serum concentrations of IgG [15, 23]: significant increases
CNS penetration [16]: high levels of CNS penetration
Activated T cells (B220+TCR-β+) in spleen compared to control ([17]; FIG. 21): reduced in dose-dependent fashion
Other splenic cell populations (B220-TCR-β-) ([17]; FIG. 21): No effect
Percentage of splenic T cells (B220-TCR-β+) ([17]; FIG. 21): reciprocal increase
Splenic follicular B cell subset ([17]; FIG. 22): no specific reductions
Splenic marginal zone B cell subset ([17]; FIG. 22): no specific reductions
Proportion of T2 B cells in the spleen ([17]; across all doses of clozapine, FIG. 22): small increase
Percentage of splenic B cells (B220+TCR-β-) of total live splenocytes ([17]; clozapine at 5 mg/kg and 10 mg/kg, FIG. 21): significantly lower percentage
Proportion of transitional stage 1 (T1) B cells in the spleen ([17]; including at the 2.5 mg/kg dose, FIG. 22): mildly reduced proportion
Germinal centre cells in the spleen versus control or haloperidol ([17]; steady state, FIG. 22): no differences observed
Pro-B cell fraction in bone marrow [18, 24]: without any change
Proportion of pre-pro B cells in bone marrow [18, 24]: significant increase
Percentage of immature B cells in bone marrow ([18]; FIG. 19): reduction
Overall B cells in the bone marrow ([18]; any dose of clozapine (2.5, 5, 10 mg/kg IP, 21 days), FIG. 18): No overall reduction
Pre-B cells in bone marrow ([18]; dose-dependent, significant vs control even at 2.5 mg/kg, FIG. 19): reduction
Percentage of proliferating pre-B cells in bone marrow ([18]; reaching significance for the 5 mg/kg dose, FIG. 19): diminished

O=C(CCCN1CCC(O)(c2ccc(Cl)cc2)CC1)c1ccc(F)cc1 [Haloperidol, haloperidol]
Activated T cells (B220+TCR-β+) in spleen compared to control ([17]; FIG. 21): also modestly apparent

Clc1ccc2c(c1)N=C(N1CCNCC1)c1ccccc1N2 [Norclozapine, norclozapine]
Direct toxicity to differentiating B-cells [13]: no direct toxicity effect

rituximab
Patients with ITP in whom platelet count improved (CD20): ~60%

— patent US20210236513A1, “NOVEL USES” (ZARODEX THERAPEUTICS LIMITED, priority 2018, published 2021)
